Reference: patent publication US20250367301A1, “PHARMACEUTICAL COMPOSITION FOR PREVENTING OR TREATING TRIPLE-NEGATIVE BREAST CANCER, COMPRISING OLIGONUCLEOTIDE AS ACTIVE INGREDIENT” (INTEROLIGO CORPORATION, priority 2021, published 2025)

Tests used:
[1] = test system: TNBC metastasis after surgical resection; conditions: after 50 days post-insertion of the drug/hydrogel patch at the resection site; mice; cited from earlier work
[2] = test system: 4T1-Luc2 triple-negative breast cancer orthotopic tumor resection model; test: Antitumor efficacy via intraperitoneal injection in TNBC orthotopic animal model (tumor resection model); format: in vivo, female Balb/c mice
4T1 Luc2 cell line = test: Intracellular uptake by flow cytometry in 4T1 Luc2 cells; format: cell-based, mouse; conditions: flow cytometry of 4T1 cells
Procedure: In this experiment, 4T1 Luc2 cell line (ATCC, USA) was used and the cells were cultured using the same method described in 3-1-1.
The medium was replaced with RPMI medium containing 5% FBS and treated with drugs for additional 2, 4, 6, 24 hours, and then DAPI staining was performed after the reaction was completed. The finished samples were compared using a flow cytometer (Beckman Coulter CytoFlex (3 lasers)) to measure the degree of fluorescence expression against the control cell line.

## Nc1ncnc2c1ncn2C1O[C@@H]2CO[P@@](=O)([S-])O[C@H]3[C@@H](O)[C@H](n4cnc5c(N)ncnc54)O[C@@H]3CO[P@@](=O)([S-])O[C@@H]1[C@@H]2O.[Na+].[Na+] (stereo partly shown) [STING-RR]
[1]
  survival rate: 60%

## Nc1ccn([C@@H]2O[C@H](CO)[C@@H](O)C2(F)F)c(=O)n1 [gemcitabine, 2′,2′-difluorodeoxycytidine, reference compound]
[2]; 1 mg intraperitoneal every other day, 10 times, after tumor resection, 5 mice
  time within which all mice died (lung metastasis): ≤ 30 days

## (Gem)2-[TGG]4[TTG][TGG]5 (NNTGGTGGTGGTGGTTGTGGTGGTGGTGGTGG; two 5' gemcitabine; modified_base 1 OTHER; 2', 2'-difluoro deoxycytidine; modified_base 2 OTHER) [IO101L, modified oligonucleotide, two gemcitabine at the 5′ end]
[2]; 2 mg intraperitoneal every other day, 10 times, after tumor resection
  mice with confirmed lung metastasis: 3 out of 7
[2]; intraperitoneal, post-TNBC tumor resection
  inhibition of cancer metastasis compared to positive control gemcitabine: significantly inhibited cancer metastasis
[2]; mouse, in vivo, ip
  mice surviving until day 76: 4 out of 7
4T1 Luc2 cell line; FIG. 4
  intracellular influx compared with the IO101L-control group: significantly superior

## Cy5-(Gem)(Gem)[TGG]4[TTG][TGG]5 [Cy5-labeled IO101L]
4T1 Luc2 cell line; after 24 hours
  Cy5-labeled IO101L found to enter the cells: over 80%
